# Key:
# A. baumannii ATCC 15308 = assay: Broth microdilution MIC of other antibiotics with potentiator compounds (Example 2); type: cell-based, Acinetobacter baumannii
# Method: Following the procedure of Example 1, ciprofloxacin, amikacin, levofloxacin, tigecycline, imipenem and the combination trimethoprim/sulfamethoxasole (1:19) were tested. All were purchased from Sigma-Aldrich Co.
# (§1) Minimal inhibitory concentration (MIC) of the antibiotic or the test combinations were determined by the broth microdilution method.
# (§2) Antibiotic stock solutions were prepared according to CLSI recommendations and sterilizing by passage through 0.20 µm filters.
# (§3) Antimicrobial susceptibility testing of these isolates was performed using the broth microdilution (BMD) method, according to CLSI guidelines.
# The fold increase in bacterial susceptibility to antibiotics when combined with the potentiator compound (expressed as MIC in the presence of 1.0% DMSO / MIC in the presence of 0.1 mM of each potentiator compound and 1.0% DMSO) are shown in Table 4: […]
# [1] = test system: Pseudomonas aeruginosa ATCC 27853; assay: Colistin broth microdilution MIC with potentiator compounds (Example 1); type: cell-based; details: P. aeruginosa ATCC 27853; MIC in the presence of 1.0% DMSO / MIC in the presence of 0.1 mM potentiator compound and 1.0% DMSO; positive = increased, negative = decreased susceptibility, 1 = no effect
# S. maltophilia 257 = assay: Broth microdilution MIC of other antibiotics with potentiator compounds, clinical isolates (Example 4); type: cell-based, Stenotrophomonas maltophilia; details: MIC in 1.0% DMSO / MIC with 0.1 mM compound and 1.0% DMSO
# Method: Following the procedure of Example 3, ciprofloxacin, amikacin, levofloxacin, imipenem and the combination trimethoprim/sulfamethoxasole (1:19) were tested. All were purchased from Sigma-Aldrich Co.
# as §1, §2, §3
# The fold increase in bacterial susceptibility to antibiotics when combined with the potentiator compound (expressed as MIC in the presence of 1.0% DMSO / MIC in the presence of 0.1 mM of each potentiator compound and 1.0% DMSO) are shown in Table 7: […]
# [2] = MIC in 1.0% DMSO / MIC with 0.1 mM potentiator compound and 1.0% DMSO
compound,measurement,setting,value
"CN(C)CCNC(=O)c1cccc(CNC(=O)Nc2ccc3c(c2)Cc2ccccc2-3)c1 [I, N-[2-(dimethylamino)ethyl]-3-[(9H-fluoren-2-ylcarbamoylamino)methyl]benzamide]",Fold increase in bacterial susceptibility to Imipenem,A. baumannii ATCC 15308; [2],2 fold
same,Fold increase in bacterial susceptibility to Levofloxacin,A. baumannii ATCC 15308; [2],4 fold
same,Fold increase in bacterial susceptibility to Tigecycline,A. baumannii ATCC 15308; [2],2 fold
same,Fold increase in bacterial susceptibility to TMP/SMX,"A. baumannii ATCC 15308; Trimethoprim:sulfamethoxazole 1:19, MIC in 1.0% DMSO / MIC with 0.1 mM potentiator compound and 1.0% DMSO",4 fold
same,Fold increase in bacterial susceptibility to colistin,[1],+2 fold
same,Fold increase in bacterial susceptibility to Levofloxacin,S. maltophilia 257,Levofloxacin (2) fold
